{
  "source": "patent US20120282258A1",
  "about": "“CRLF2 IN PRECURSOR B-CELL ACUTE LYMPHOBLASTIC LEUKEMIA” (DANA-FARBER CANCER INSTITUTE, INC., priority 2009, published 2012)",
  "key": {"[1]": {"tested_on": "BaF3-CRLF2 Phe232Cys cells", "experiment": "Toxicity of agents with activity against PKC family kinases in BaF3 cells", "type": "cell-based, murine"}, "[2]": {"tested_on": "BaF3 cells expressing CRLF2 Phe232Cys", "experiment": "Viability of BaF3 cells exposed to JAK inhibitor-1 for 72 hours, relative to vehicle", "type": "cell-based, murine", "details": "no cytokines, FIG. 5", "procedure": "(§1) FIG. 5 is a graph depicting signal activation and dependence on JAK signaling. BaF3 cells that stably express BCR/ABL, CRLF2 and/or JAK2 were grown in the absence of cytokines. +IL3 indicates unmodified BaF3 cells grown in the presence of 500 pg/mL IL-3. Data represents the ratio of viable cells exposed to JAK inhibitor-1 (Calbiochem) at varying concentrations for 72 hours, compared to the same cell line exposed to vehicle. Error bars indicate one standard deviation.\n(§2) As expected, TSLP had no effect on STAT5, ERK or JAK2 phosphorylation in cells with mutant CRLF2 or JAK2 proteins."}, "[3]": {"tested_on": "BaF3 cells expressing CRLF2/mutant JAK2", "experiment": "Viability of BaF3 cells exposed to JAK inhibitor-1 for 72 hours, relative to vehicle", "type": "cell-based, murine", "details": "BaF3 CRLF2/mutant JAK2, no cytokines, FIG. 5", "procedure": "as §1, §2"}, "[4]": {"tested_on": "BaF3 cells expressing CRLF2 Phe232Cys", "experiment": "In vitro cell growth in the absence of IL-3 with TSLP added", "type": "cell-based, murine", "details": "TSLP 1 ng/mL added at day 0, FIG. 3", "procedure": "(§3) FIG. 3 is a group of four graphs depicting in vitro cell growth of UT7 cells and BaF cells that stably express CRLF2 and/or JAK2 alleles grown in the absence of GM-CSF (UT7) or IL-3 (BaF3). For the bottom right panel, TSLP 1 ng/mL was added at day 0, as indicated. Growth is the number of viable cells relative to the number of cells initially seeded on day 0. Error bars represent one standard deviation.\n(§4) Unlike cells that express CRLF2/IL-7R, the addition of TSLP had no effect on the growth of BaF3 cells expressing CRLF2 Phe232Cys (FIG. 3)."}, "[5]": {"tested_on": "BaF3 cells that express CRLF2 Phe232Cys/IL-7R", "experiment": "In vitro cell growth in the absence of IL-3 with TSLP added", "type": "cell-based, murine", "details": "BaF3 CRLF2 Phe232Cys/IL-7R, TSLP 1 ng/mL added at day 0, FIG. 3", "procedure": "as §3, §4"}, "[6]": {"tested_on": "BaF3 cells that express CRLF2/mutant JAK2", "experiment": "In vitro cell growth in the absence of IL-3 with TSLP added", "type": "cell-based, murine", "procedure": "as §3, §4"}, "[7]": {"tested_on": "STAT5, ERK or JAK2 phosphorylation in cells with mutant CRLF2 or JAK2 proteins", "experiment": "Phosphorylation of STAT5, ERK and JAK2 in BaF3 cells treated with TSLP", "type": "cell-based, murine", "source_text": "In BaF3 cells, both CRLF2 Phe232Cys and CRLF2/mutant JAK2 promoted the phosphorylation of the JAK targets STAT5 and ERK.\nas §2"}, "[8]": {"tested_on": "phospho-JAK2 in CRLF2/IL-7R cells", "experiment": "Phospho-JAK2 in CRLF2/IL-7R cells treated with TSLP", "type": "cell-based, murine", "source_text": "as §2"}, "[9]": {"target": "the molecule itself", "experiment": "immunoblot of BaF3 cells under reducing and non-reducing conditions (homodimer)", "procedure": "(§5) The CRLF2 Phe232 residue is near the junction of the extracellular and transmembrane domains. Mutations that introduce cysteine residues in this region of other receptor tyrosine kinases, such as RET, can activate signal transduction through intermolecular disulfide-bonded dimers. To confirm that CRLF2 Phe232Cys promotes constitutive dimerization, immunoblots in BaF3 cells expressing wild-type CRLF2 or CRLF2 Phe232Cys were performed under both reducing and non-reducing conditions. Under non-reducing conditions, the molecular weight of the CRLF2 Phe232Cys band, but not the wild-type band, was doubled, consistent with constitutive dimerization through the cysteine residues."}, "[10]": {"target": "the molecule itself", "experiment": "immunoblot of BaF3 cells under reducing and non-reducing conditions (self-association)", "procedure": "as §5"}},
  "data": [
    {"molecule": "Cn1c2ccccc2c2c3c(c4c5ccccc5n(CCC#N)c4c21)CNC3=O", "note": "[Go6976]", "values": [
      {"measurement": "toxicity in BaF3-CRLF2 Phe232Cys cells as compared to BaF3 cells expressing wild-type CRLF2", "setting": "[1]", "value": "selective toxicity"}
    ]},
    {"molecule": "CO[C@@H]1[C@H](N(C)C(=O)c2ccccc2)C[C@H]2O[C@]1(C)n1c3ccccc3c3c4c(c5c6ccccc6n2c5c31)C(=O)NC4", "note": "[PKC412]", "values": [
      {"measurement": "toxicity in BaF3-CRLF2 Phe232Cys cells as compared to BaF3 cells expressing wild-type CRLF2", "setting": "[1]", "value": "selective toxicity"}
    ]},
    {"molecule": "CN[C@@H]1C[C@H]2O[C@@](C)([C@@H]1OC)n1c3ccccc3c3c4c(c5c6ccccc6n2c5c31)C(=O)N[C@@H]4O", "note": "[UCN-01]", "values": [
      {"measurement": "toxicity in BaF3-CRLF2 Phe232Cys cells as compared to BaF3 cells expressing wild-type CRLF2", "setting": "[1]", "value": "selective toxicity"}
    ]},
    {"molecule": "COC(=O)[C@@]1(O)C[C@H]2O[C@]1(C)n1c3ccccc3c3c4c(c5c6ccccc6n2c5c31)C(=O)NC4", "note": "[k252a]", "values": [
      {"measurement": "toxicity in BaF3-CRLF2 Phe232Cys cells as compared to BaF3 cells expressing wild-type CRLF2", "setting": "[1]", "value": "selective toxicity"}
    ]},
    {"molecule": "CC(C)(C)c1nc2c3cc[nH]c(=O)c3c3cc(F)ccc3c2[nH]1", "note": "[small molecule JAK inhibitor]", "values": [
      {"measurement": "sensitivity of cells to JAK inhibitor (ratio of viable cells versus vehicle)", "setting": "[2]", "value": "highly sensitive"},
      {"measurement": "sensitivity of cells to JAK inhibitor (ratio of viable cells versus vehicle)", "setting": "[3]", "value": "highly sensitive"}
    ]},
    {"molecule": "TSLP: thymic stromal lymphopoietin, cytokine ligand of the CRLF2/IL-7R heterodimer", "values": [
      {"measurement": "effect of TSLP on cell growth", "setting": "[4]", "value": "no effect"},
      {"measurement": "effect of TSLP on cell growth", "setting": "[5]", "value": "promoted the growth"},
      {"measurement": "effect of TSLP on cell growth", "setting": "[6]", "value": "did not promote the growth"},
      {"measurement": "effect of TSLP on STAT5, ERK or JAK2 phosphorylation", "setting": "[7]", "value": "no effect"},
      {"measurement": "phospho-JAK2 after TSLP treatment", "setting": "[8]", "value": "no detectable phospho-JAK2"}
    ]},
    {"molecule": "CRLF2 Phe232Cys (F232C mutant of human CRLF2) (receptor, Expressed in BaF3 cells; also called CRLF2 F232C; CRLF2 711T>G) QGGAAEGVQIQIIYFNLETVQVTWNASKYSRTNLTFHYRFNGDEAYDQCTNYLLQEGHTSGCLLDAEQRDDILYFSIRNGTHPVFTASRWMVYYLKPSSPKHVRFSWHQDAVTVTCSDLSYGDLLYEVQYRSPFDTEWQSKQENTCNVTIEGLDAEKCYSFWVRVKAMEDVYGPDTYPSDWSEVTCWQRGEIRDACAETPTPPKPKLSKCILISSLAILLMVSLLLLSLWKLWRVKKFLIPSVPDPKSIFPGLFEIHQGNFQEWITDTQNVAHLHKMAGAEQESGPEEPLVVQLAKTEAESPRMLDPQTEEKEASGGSLQLPHQPLQGGDVVTIGGFTFVMNDRSYVAL", "values": [
      {"measurement": "binding result", "setting": "[9]", "value": "binds"}
    ]},
    {"molecule": "wild-type human cytokine receptor-like factor 2 (CRLF2) (receptor, Expressed by retrovirus in BaF3 cells and detected by immunoblot of the cells; also called wt CRLF2; CRL2) QGGAAEGVQIQIIYFNLETVQVTWNASKYSRTNLTFHYRFNGDEAYDQCTNYLLQEGHTSGCLLDAEQRDDILYFSIRNGTHPVFTASRWMVYYLKPSSPKHVRFSWHQDAVTVTCSDLSYGDLLYEVQYRSPFDTEWQSKQENTCNVTIEGLDAEKCYSFWVRVKAMEDVYGPDTYPSDWSEVTCWQRGEIRDACAETPTPPKPKLSKFILISSLAILLMVSLLLLSLWKLWRVKKFLIPSVPDPKSIFPGLFEIHQGNFQEWITDTQNVAHLHKMAGAEQESGPEEPLVVQLAKTEAESPRMLDPQTEEKEASGGSLQLPHQPLQGGDVVTIGGFTFVMNDRSYVAL", "values": [
      {"measurement": "binding result", "setting": "[10]", "value": "no binding"}
    ]}
  ]
}
